Test results published in patent US20110244060A1, “CARDIOPROTECTIVE EFFECTS OF NUTRACEUTICALS ISOLATED FROM NIGELLA SATIVA SEEDS” (UNIVERSITI PUTRA MALAYSIA, priority 2008, published 2011).
Marks after values point to notes of the source that are not given here.

How the values were obtained:
hydroxyl radical = assay: Hydroxyl radical scavenging activity of rat plasma by ESR; format: in vivo; conditions: plasma of rats after 8 weeks of treatment, different doses
LDLR mRNA [1] = assay: LDLR mRNA expression in HepG2 cells, quantitative real-time PCR; format: cell-based, human; conditions: TQ 2 μg/ml, compared to control cells
HMG-COAR mRNA [2] = assay: HMG-COAR mRNA expression in HepG2 cells, real-time PCR; format: cell-based, human; conditions: HepG2 cells (in vitro), compared to the control
Experimental: (§1) For the determination of mRNA expression levels of LDLR, HMG-COAR, beta actin, Apo A-1, Apo E and Apo B100 by real time PCR, HepG2 cells were plated in 6-well plates at a density of 1.8×10^5 cells/well for 24 h. The cells were incubated with 10% HLPDS for 24 h with or without adding 2 μg/ml 25OH for another 24 h. The cells were treated with TQRF at two different doses, 80 and 50 μg/ml for 24 h, and with TQ at dose of 2 μg/ml Total RNA was isolated from HepG2 cells and rats liver tissues using RiboPure RNA Isolation Kit according to the manufacturer's instructions. […] Real-time quantitative PCR was performed using the Quantict Probe Real time PCR master mix according to the manufacturer's instructions. TaqMan Primers and probes specific for LDLR and HMG-COA genes were designed using the sequence entries from GenBank (Table. 1) Database and synthesis by Integrated DNA Technologies (IDT). Human beta-actin mRNA was used as housekeeping gene, TaqMan Primers and probes specific for human beta-actin gene was synthesis by Sigma Aldrich. The probes were labeled with FAM 3′ end and the fluorophores 6FAM at 5′ end. The real-time quantitative PCR reaction for each sample was carried out in triplicate and each experiment was repeated twice. […] Analysis of gene expression data was carried out by ΔΔCT method of relative quantification, according to Kenneth, et al, (2001) (32). […]

[3] = system: Sprague-Dawley rats fed with diets supplemented with 1% cholesterol; assay: Hypocholesterolemic effect of TQRF and TQ in rats fed 1% cholesterol diet (plasma TC, LDLC); format: in vivo, rat; conditions: for TC levels in experimental rats: 1% cholesterol diet
Apo E mRNA [4] = assay: Apo E mRNA expression in HepG2 cells, real-time PCR; format: cell-based, human; conditions: HepG2 cells (in vitro), compared to the control
Experimental: as §1

HMG-COAR mRNA [5] = assay: HMG-COAR mRNA expression in rat liver, real-time PCR; conditions: rat liver (in vivo), compared to the control
Experimental: At the end of the experiment, all the rats were dissected and liver tissues for RNA isolation were removed, snap frozen with liquid nitrogen within approximately 2 min of death, and stored at −80° C. for gene expression study. Total RNA was isolated from HepG2 cells and rats liver tissues using RiboPure RNA Isolation Kit according to the manufacturer's instructions. […] Real-time quantitative PCR was performed using the Quantict Probe Real time PCR master mix according to the manufacturer's instructions. TaqMan Primers and probes specific for LDLR and HMG-COA genes were designed using the sequence entries from GenBank (Table. 1) Database and synthesis by Integrated DNA Technologies (IDT). Human beta-actin mRNA was used as housekeeping gene, TaqMan Primers and probes specific for human beta-actin gene was synthesis by Sigma Aldrich. The probes were labeled with FAM 3′ end and the fluorophores 6FAM at 5′ end. The real-time quantitative PCR reaction for each sample was carried out in triplicate and each experiment was repeated twice. […] Analysis of gene expression data was carried out by ΔΔCT method of relative quantification, according to Kenneth, et al, (2001) (32). […]

Apo A-1 mRNA [6] = assay: Apo A-1 mRNA expression in rat liver, real-time PCR; conditions: rat liver (in vivo), compared to the control
Apo A-1 mRNA [7] = assay: Apo A-1 mRNA expression in HepG2 cells, real-time PCR; format: cell-based, human; conditions: HepG2 cells (in vitro), compared to the control
Experimental: as §1

Apo E mRNA [8] = assay: Apo E mRNA expression in rat liver, real-time PCR; conditions: rat liver (in vivo), compared to the control
[9] = Toxicity parameters (ALT, GGT, urea, creatinine) of plasma from experimental rats; conditions: rat, in vivo
Experimental: In the present invention, the in vivo (rabbit study) antioxidant activity of NSP and NSO were measured using Selectra E manufacture Vital scientific machine (UK) and with commercial kits (Randox, Crumlin, Co. Antrim, UK). The present invention provides a method of the antioxidant activity of TQRF and TQ on .OH scavenging activity using ESR in experimental rats. The present invention provided clear understanding of the molecular mechanism by which TQRF and TQ exert their lowering cholesterol property. The regulatory effect of TQRF and TQ on genes involved in cholesterol metabolism such as LDLR, HMG-COAR, Apo A-1, Apo B100 and Apo E were investigated in vitro using HepG2 cells and in vivo using Sprague-Dawley rats. The present invention also provides evidence on the safety of selective doses of TQRF, TQ, NSO and NSP by measuring the toxicity parameters including Alanine aminotransferase (ALT), Gamma-glutamyltranspeptidase (GGT), urea and creatinine of plasma collected from experimental rats and rabbits.
Toxicity parameter including, ALT of plasma samples collected from experimental rats at baseline, middle of the treatment and the end f the treatment s were measured using analytical kit by kinetic UV assay using Roche Selectra E machine.

LDLR mRNA [10] = assay: LDLR mRNA expression in liver of experimental rats, quantitative real-time PCR; format: in vivo; conditions: rat liver, compared with untreated rats
Apo B100 mRNA [11] = assay: Apo B100 mRNA expression in rat liver, real-time PCR; conditions: rat liver (in vivo), compared to the control
Apo B100 mRNA [12] = assay: Apo B100 mRNA expression in HepG2 cells, real-time PCR; format: cell-based, human; conditions: HepG2 cells (in vitro), compared to the control
Experimental: as §1

CC1=CC(=O)C(C(C)C)=CC1=O [TQ, Thymoquinone]
hydroxyl radical scavenging activity of plasma (ESR) (hydroxyl radical): able to directly scavenge .OH
increase of LDLR mRNA expression level (LDLR mRNA [1]): two
HMG-COAR mRNA expression (HMG-COAR mRNA [2]): down-regulated
TC levels in experimental rats ([3]; TQ 1 group (20 mg/kg oral emulsion), after 4 weeks): 1.49 ± 0.24 ^b mmol/l
TC levels in experimental rats ([3]; TQ 1 group (20 mg/kg oral emulsion), after 8 weeks): 1.48 ± 0.22 ^a, c mmol/l
TC levels in experimental rats ([3]; TQ 1 group (20 mg/kg oral emulsion), baseline): 0.85 ± 0.19 mmol/L
TC levels in experimental rats ([3]; TQ 2 group (50 mg/kg oral emulsion), after 4 weeks): 1.47 ± 0.31 ^b mmol/l
TC levels in experimental rats ([3]; TQ 2 group (50 mg/kg oral emulsion), after 8 weeks): 1.01 ± 0.34 ^a mmol/l
TC levels in experimental rats ([3]; TQ 2 group (50 mg/kg oral emulsion), baseline): 0.97 ± 0.05 mmol/L
TC levels in experimental rats ([3]; TQ 3 group (dose 20 mg/kg, oral emulsion), after 4 weeks): 1.41 ± 0.48 ^b mmol/l
TC levels in experimental rats ([3]; TQ 3 group (dose 20 mg/kg, oral emulsion), after 8 weeks): 0.94 ± 0.30 ^a mmol/l
TC levels in experimental rats ([3]; TQ 3 group (dose 20 mg/kg, oral emulsion), baseline): 0.87 ± 0.26 mmol/L
plasma low density lipoprotein cholesterol (LDLC) ([3]; rats, different doses for 8 weeks, compared to controlled group): significant decrease
Apo E mRNA expression (Apo E mRNA [4]): up-regulated
HMG-COAR mRNA expression (HMG-COAR mRNA [5]): down-regulated
Apo A-I mRNA expression (Apo A-1 mRNA [6]): up-regulated
Apo A-I mRNA expression (Apo A-1 mRNA [7]): up-regulated
Apo E mRNA expression (Apo E mRNA [8]): up-regulated
toxicity (hepatic and kidney enzyme stability, organ integrity) [9]: non toxic
increase of LDLR mRNA level (LDLR mRNA [10]; TQ 20 mg/kg body weight): two
increase of LDLR mRNA level (LDLR mRNA [10]; TQ 100 mg/kg body weight): seven
Apo B100 mRNA expression (Apo B100 mRNA [11]): down-regulated
Apo B100 mRNA expression (Apo B100 mRNA [12]): down-regulated
